According to patent US20050038077A1, “Tablet containing 3-[(2-{[4-(hexyloxycarbonylamino-imino-methyl)-phenylamino]-methyl}-1-methyl-1H- benzimidazol-5-carbonyl)-pyridin-2-yl-amino]-propionic acid ethylester or the salts thereof” (Boehringer Ingelheim International GmbH, priority 2003, published 2005):

Experiment: first clinical trials, oral administration, plasma levels
Assay type: in vivo
[1] = conventional tablets containing the compound of formula (I), first clinical trials

With `CCCCCCOC(=O)NC(=N)c1ccc(NCc2nc3cc(C(=O)N(CCC(=O)OCC)c4ccccn4)ccc3n2C)cc1` [compound of formula (I), ethyl 3-[(2-{[4-(hexyloxycarbonylaminoiminomethyl)phenylamino]methyl}-1-methyl-1H-benzimidazole-5-carbonyl)pyridin-2-ylamino]propionate] the malabsorption (administered as an oral solution) was “no instances of malabsorption have been observed”, the “variability of the plasma level patterns” value (administered as an oral solution, compared with conventional tablets) was “significantly lower” and the malabsorption [1] was “individual cases of malabsorption”. For the same molecule, the “variability of plasma levels” value [1] was “highly variable plasma levels”.
